Results: patent US9302999B2, “Substituted triazoles as herbicides” (E. I. DU PONT DE NEMOURS AND COMPANY, priority 2012, dated 2016)

Assays:
Format in all cases: in vivo
[1] = test system: pigweed, palmer (palmer pigweed, Amaranthus palmeri); experiment: Test F pre-/postemergence: pigweed, palmer; details: Postemergence, scale 0 to 100
Source text: (§1) Seeds of plant species selected from corn (Zea mays), soybean (Glycine max), velvetleaf (Abutilon theophrasti), lambsquarters (Chenopodium album), poinsettia, wild (wild poinsettia, Euphorbia heterophylla), pigweed, palmer (palmer pigweed, Amaranthus palmeri), waterhemp (common waterhemp, Amaranthus rudis), surinam grass (Brachiaria decumbens), crabgrass, Brazil (Brazilian crabgrass, Digitaria horizontalis), panicum, fall (fall panicum Panicum dichotomiflorum), crabgrass, large (large crabgrass, Digitaria sanguinalis), foxtail, giant (giant foxtail, Setaria faberii), foxtail, green (green foxtail Setaria viridis), goosegrass (Eleusine indica), ragweed (common ragweed, Ambrosia elatior), barnyardgrass (Echinochloa crus-galli), sandbur (southern sandbur, Cenchrus echinatus), arrowleaf sida (Sida rhombifolia), ryegrass, Italian (Italian ryegrass, Lolium multiflorum), dayflower, VA (Virginia (VA) dayflower, Commelina virginica), field bindweed (Convolvulus arvensis), cocklebur (common cocklebur, Xanthium strumarium), morningglory (Ipomoea coccinea), nightshade (eastern black nightshade, Solanum ptycanthum), kochia (Kochia scoparia), nutsedge, yellow (yellow nutsedge, Cyperus esculentus), johnsongrass (Sorghum halepense), smartweed (ladysthumb smartweed, Polygonum persicaria), and beggarticks (hairy beggarticks, Bidens pilosa), were planted into a silt loam soil and treated preemergence with test chemicals formulated in a non-phytotoxic solvent mixture which included a surfactant. At the same time, plants selected from these crop and weed species and also pigweed (Amaranthus retroflexus), waterhemp_RES1 (ALS/Triazine resistant common waterhemp, Amaranthus rudis) and waterhemp_RES2 (ALS/HPPD resistant common waterhemp, Amaranthus rudis) were planted in pots containing a planting medium comprising spaghnum peat moss, vermiculite, wetting agent and starter nutrients treated with postemergence applications of some of the test chemicals formulated in the same manner. Plants ranged in height from 2 to 18 cm for postemergence treatments (1- to 4-leaf stage).
(§2) Treated plants and controls were maintained in a greenhouse for 14 to 21 days, after which time all species were compared to controls and visually evaluated. Plant response ratings, summarized in Table E, are based on a scale of 0 to 100 where 0 is no effect and 100 is complete control. A dash (-) response means no test result.

[2] = test system: crabgrass, Brazil (Brazilian crabgrass, Digitaria horizontalis); experiment: Test F pre-/postemergence: crabgrass, Brazil; details: Postemergence, scale 0 to 100
Source text: as §1, §2

[3] = test system: bromegrass, downy (downy bromegrass, Bromus tectorum); experiment: Test D pre-/postemergence: bromegrass, downy
How it was run: (§3)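 Visual control ratings (0–100) after 14–21 days, controlled environment. Preemergence on silt loam; postemergence on 2–18 cm plants.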

[4] = test system: ducksalad (Heteranthera limosa); experiment: Test C flooded paddy test: ducksalad; details: scale 0 to 100 (0 no effect, 100 complete control); for pest or weed control at 62 g/ha / pest or weed control at 250 g/ha: Heteranthera limosa, read-out: Plant response rating, Ducksalad
How it was run: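 Plants were grown to the 2-leaf stage, pots flooded to 3 cm above soil, and test compounds applied directly to the paddy water, with that depth held throughout. After 13 to 15 days in a greenhouse, injury was visually rated against controls on a 0 (no effect) to 100 (complete control) scale.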

kochia (Kochia scoparia) = experiment: Test D pre-/postemergence: kochia
How it was run: as §3

[5] = test system: buckwheat, wild (wild buckwheat, Polygonum convolvulus); experiment: Test D pre-/postemergence: buckwheat, wild
Source text: Seeds of plant species selected from bluegrass (annual bluegrass, Poa annua), blackgrass (Alopecurus myosuroides), canarygrass (Phalaris minor), chickweed (common chickweed, Stellaria media), galium (catchweed bedstraw, Galium aparine), bromegrass, downy (downy bromegrass, Bromus tectorum), field poppy (Papaver rhoeas), field violet (Viola arvensis), foxtail, green (green foxtail, Setaria viridis), deadnettle (henbit deadnettle, Lamium amplexicaule), ryegrass, Italian (Italian ryegrass, Lolium multiflorum), kochia (Kochia scoparia), lambsquarters (Chenopodium album), oilseed rape (Brassica napus), pigweed (Amaranthus retroflexus), Russian thistle (Salsola iberica), chamomile (scentless chamomile, Matricaria inodora), speedwell (bird's-eye speedwell, Veronica persica), barley, spring (spring barley, Hordeum vulgare), wheat, spring (spring wheat, Triticum aestivum), buckwheat, wild (wild buckwheat, Polygonum convolvulus), mustard, wild (wild mustard, Sinapis arvensis), oat, wild (wild oat, Avena fatua), radish, wild (wild radish, Raphanus raphanistrum), windgrass (Apera spica-venti), barley, winter (winter barley, Hordeum vulgare), and wheat, winter (winter wheat, Triticum aestivum) were planted into a silt loam soil and treated preemergence with test chemicals formulated in a non-phytotoxic solvent mixture which included a surfactant. At the same time, these same crop and weed species were planted in pots containing the planting medium comprising spaghnum peat moss, vermiculite, wetting agent and starter nutrients and treated with postemergence applications of the test chemicals formulated in the same manner. Plants ranged in height from 2 to 18 cm (1- to 4-leaf stage).
Treated plants and controls were maintained in a controlled growth environment for 14 to 21 days after which time all species were compared to controls and visually evaluated. Plant response ratings, summarized in Table D, are based on a scale of 0 to 100 where 0 is no effect and 100 is complete control. A dash (-) response means no test result.

[6] = Postemergence, 31 g ai/ha, scale 0 to 100 (0 no effect, 100 complete control)
[7] = Postemergence, 62 g ai/ha, scale 0 to 100 (0 no effect, 100 complete control)
[8] = Postemergence, 125 g ai/ha, scale 0 to 100, 0 no effect, 100 complete control
[9] = Postemergence, 250 g ai/ha, scale 0 to 100 (0 no effect, 100 complete control)
[10] = Preemergence, 31 g ai/ha, scale 0 to 100, 0 no effect, 100 complete control
[11] = Preemergence, 62 g ai/ha, scale 0 to 100
[12] = Preemergence, 125 g ai/ha, scale 0 to 100
[13] = Preemergence, 250 g ai/ha, scale 0 to 100
[14] = Flood (flooded paddy test), 62 g ai/ha, visual rating after 13 to 15 days
[15] = Flood (flooded paddy test), 250 g ai/ha, visual rating after 13 to 15 days
[16] = Postemergence, 16 g ai/ha, scale 0 to 100
[17] = Preemergence, 16 g ai/ha, scale 0 to 100, 0 no effect, 100 complete control

Structure (SMILES) | Plant response rating: Bromegrass, Downy [3, 6] | Plant response rating: Bromegrass, Downy [3, 7] | Plant response rating: Bromegrass, Downy [3, 8] | Plant response rating: Bromegrass, Downy [3, 9] | Plant response rating, Bromegrass, Downy [3, 10] | Plant response rating, Bromegrass, Downy [3, 11] | Plant response rating, Bromegrass, Downy [3, 12] | Plant response rating, Bromegrass, Downy [3, 13] | Plant response rating: Kochia (kochia (Kochia scoparia); [6]) | Plant response rating: Kochia (kochia (Kochia scoparia); [7]) | Plant response rating: Kochia (kochia (Kochia scoparia); [8]) | Plant response rating: Kochia (kochia (Kochia scoparia); [9]) | Plant response rating, Kochia (kochia (Kochia scoparia); [10]) | Plant response rating, Kochia (kochia (Kochia scoparia); [11]) | Plant response rating, Kochia (kochia (Kochia scoparia); [12]) | Plant response rating, Kochia (kochia (Kochia scoparia); [13]) | Plant response rating: Buckwheat, Wild [5, 6] | Plant response rating: Buckwheat, Wild [5, 7] | Plant response rating: Buckwheat, Wild [5, 8] | Plant response rating: Buckwheat, Wild [5, 9] | also measured
Cc1nn(-c2ccnc(Cl)c2)nc1Cc1ccnc(C(F)(F)F)c1 [Compound 141] |  |  |  |  |  |  |  |  |  |  |  |  |  |  |  |  |  |  |  |  | Plant response rating, Pigweed, Palmer ([1]; 8 g ai/ha): 95; Plant response rating, Pigweed, Palmer ([1]; 16 g ai/ha): 95; Plant response rating, Pigweed, Palmer ([1]; 31 g ai/ha): 95; Plant response rating, Pigweed, Palmer ([1]; 62 g ai/ha): 100; Plant response rating, Pigweed, Palmer ([1]; 125 g ai/ha): 100; Plant response rating, Crabgrass, Brazil ([2]; 8 g ai/ha): 70; Plant response rating, Crabgrass, Brazil ([2]; 16 g ai/ha): 80; Plant response rating, Crabgrass, Brazil ([2]; 31 g ai/ha): 95; Plant response rating, Crabgrass, Brazil ([2]; 62 g ai/ha): 95; Plant response rating, Crabgrass, Brazil ([2]; 125 g ai/ha): 95
FC(F)(F)COc1nn(-c2ccc(C(F)(F)F)cc2)nc1Cc1ccnc(C(F)(F)F)c1 [Compound 14, 4-[[5-(2,2,2-trifluoroethoxy)-2-[4-(trifluoromethyl)phenyl]-2H-1,2,3-triazol-4-yl]methyl]-2-(trifluoromethyl)pyridine] | 15 | 20 | 30 | 40 | 0 | 10 | 20 | 30 | 95 | 95 | 100 | 100 | 10 | 40 | 80 | 90 | 0 | 40 | 60 | 100 | pest or weed control at 62 g/ha [4, 14]: 40%; pest or weed control at 250 g/ha [4, 15]: 60%; Plant response rating, Buckwheat, Wild [5, 10]: 0; Plant response rating, Buckwheat, Wild [5, 11]: 30; Plant response rating, Buckwheat, Wild [5, 12]: 35; Plant response rating, Buckwheat, Wild [5, 13]: 40
COc1nn(-c2ccc(C(F)(F)F)cc2)nc1Cc1ccnc(C(F)(F)F)c1 [Compound 15, 4-[[5-methoxy-2-[4-(trifluoromethyl)phenyl]-2H-1,2,3-triazol-4-yl]methyl]-2-(trifluoromethyl)pyridine] | 10 | 10 | 20 | 40 | 0 | 0 | 0 | 40 | 90 | 90 | 100 | 100 | 0 | 0 | 70 | 100 | 30 | 30 | 70 | 100 | Plant response rating, Bromegrass, Downy [3, 16]: 5; pest or weed control at 62 g/ha [4, 14]: 40%; pest or weed control at 250 g/ha [4, 15]: 60%; Plant response rating, Kochia (kochia (Kochia scoparia); [16]): 20; Plant response rating, Buckwheat, Wild [5, 16]: 0; Plant response rating, Buckwheat, Wild [5, 10]: 0; Plant response rating, Buckwheat, Wild [5, 11]: 100; Plant response rating, Buckwheat, Wild [5, 12]: 100; Plant response rating, Buckwheat, Wild [5, 13]: 100
Cc1nn(-c2ccc(C(F)(F)F)cc2)nc1Oc1ccnc(C(F)(F)F)c1 [Compound 120] | 10 | 10 | 20 | 25 | 0 | 5 | 25 | 60 | 98 | 100 | 100 | 100 | 10 | 30 | 95 | 100 | 75 | 85 | 95 | 98 | Plant response rating, Bromegrass, Downy [3, 16]: 5; Plant response rating, Bromegrass, Downy [3, 17]: 0; Plant response rating, Ducksalad ([4]; Flood (flooded paddy test), 125 g ai/ha, visual rating after 13 to 15 days): 80; Plant response rating, Ducksalad [4, 15]: 85; Plant response rating, Ducksalad ([4]; Flood, 62 g ai/ha): 70; Plant response rating, Kochia (kochia (Kochia scoparia); [16]): 98; Plant response rating, Kochia (kochia (Kochia scoparia); [17]): 0; Plant response rating, Buckwheat, Wild [5, 16]: 50; Plant response rating, Buckwheat, Wild [5, 11]: 10; Plant response rating, Buckwheat, Wild [5, 12]: 70; Plant response rating, Buckwheat, Wild [5, 13]: 100
